The subject of assay [1] is full panel of receptors (5ht1a ... σ1, σ2). The assay is described as follows: Full panel receptor binding (secondary binding). The text has this:
FIGS. 28 A and B provide a full panel Receptor data for certain compounds of the invention. Data on the full panel (secondary binding) are Ki values. The Ki values are reported in nanomolar concentrations, In the Full panel data various receptors were used, including 5ht1a, 5ht1b, 5ht1d, 5ht1e, 5ht2a, 5ht2b, 5ht2c, 5ht3, 5ht5a, 5ht6, 5ht7, α1A, α1B, α2A, α2B, α2C, β1, β2, CB1, CB2, D1, D2, D3, D4, D5, DAT, DOR, H1, H2, H3, H4, imidazoline 1, KOR, M1, M2, M3, M4, M5, MDR1, MOR, NET, NMDA, SERT, σ1, and σ2. 5-HT receptors, 5ht1a, 5ht1b, 5ht1d, 5ht1e, 5ht2a, 5ht2b, 5ht2c, 5ht3, 5ht5a, 5ht6, 5ht7, are receptors for the neurotransmitter and peripheral signal mediator serotonin, also known as 5-hydroxytryptamine or 5-HT. α1A, α1B, α2A, α2B, α2C, β1, β2; CB1, CB2 are adrenoceptors; cannabinoid receptors, D1, D2, D3, D4, D5 are dopamine receptors; DAT is dopamine transporter receptor; DOR is δ-Opioid receptor; H1, H2, H3, H4 are histamine receptors; KOR is κ-Opioid receptor; M1, M2, M3, M4, M5 are muscarinic acetylcholine receptors; MDR represents multidrug resistance in the course of exposure to various compounds that are used in modern anticancer therapy, including cytotoxic drugs and differentiating agents. […]

The target in assay [2] is T1, α5β3γ2 benzodiazepine receptor GABA(A) isoform (UniProt P18507+P31644).
T1 sequence (P18507 1-475): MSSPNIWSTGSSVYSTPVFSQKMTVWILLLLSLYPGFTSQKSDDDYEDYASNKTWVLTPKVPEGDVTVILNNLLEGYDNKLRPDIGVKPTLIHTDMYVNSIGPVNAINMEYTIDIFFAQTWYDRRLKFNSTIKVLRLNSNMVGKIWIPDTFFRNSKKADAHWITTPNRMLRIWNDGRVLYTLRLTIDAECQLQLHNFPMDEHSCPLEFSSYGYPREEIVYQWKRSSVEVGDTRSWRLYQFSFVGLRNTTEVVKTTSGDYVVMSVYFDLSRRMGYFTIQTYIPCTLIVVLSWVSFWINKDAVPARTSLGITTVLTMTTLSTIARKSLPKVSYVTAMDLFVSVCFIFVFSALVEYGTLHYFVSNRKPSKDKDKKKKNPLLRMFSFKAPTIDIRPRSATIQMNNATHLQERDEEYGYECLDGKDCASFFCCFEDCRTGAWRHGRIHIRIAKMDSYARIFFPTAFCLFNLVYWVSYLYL
T1 sequence (P31644 1-462): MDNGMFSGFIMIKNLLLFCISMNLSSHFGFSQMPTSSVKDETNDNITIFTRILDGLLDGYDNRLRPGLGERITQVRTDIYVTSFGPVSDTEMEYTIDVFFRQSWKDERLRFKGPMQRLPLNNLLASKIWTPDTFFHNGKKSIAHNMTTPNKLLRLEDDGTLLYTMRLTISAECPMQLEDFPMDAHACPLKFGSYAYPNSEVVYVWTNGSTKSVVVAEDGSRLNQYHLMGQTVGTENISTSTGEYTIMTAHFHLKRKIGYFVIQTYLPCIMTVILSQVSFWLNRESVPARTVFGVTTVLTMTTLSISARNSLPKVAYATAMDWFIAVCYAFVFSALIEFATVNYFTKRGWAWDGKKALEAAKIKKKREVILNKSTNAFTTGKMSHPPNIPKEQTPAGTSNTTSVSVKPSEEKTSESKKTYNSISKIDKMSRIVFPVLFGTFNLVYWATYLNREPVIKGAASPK
The assay is described as follows: Radioligand competition binding, α5β3γ2 BzR/GABA(A) isoform. The arrangement: Ki α5; other: text; HEK-T cells (Roth et al.); species or system human and rat. As to conditions: read-out: Ki α5; HEK-T cells (Roth et al.).

Consider `CCc1ccc2c(c1)C(=O)N(C)Cc1c(C(=O)OCCCOC(=O)c3ncn4c3CN(C)C(=O)c3cc(CC)ccc3-4)ncn1-2` [XLi356, 1,3-Bis(8-ethyl-5,6-dihydro-5-methyl-6-oxo-4H-imidazo[1,5a][1,4]benzodiazepine-3-carboxy)propyl diester], for which the “binding to other receptors in full panel (in words)” value in assay [1] is reported as “do not bind to other receptors at levels of concern”. In assay [2], the Ki was determined as 107 nM.

Source of the values: patent US7595395B2, “Gabaergic agents to treat memory deficits” (priority 2005, dated 2009).
